This is an account of results in patent US10039747B2, “Tetrahydrocyclopentapyrrole derivatives and a method for preparing the same” (Daewoong Pharmaceutical Co., Ltd., priority 2013, dated 2018).

Structures are written as SMILES. pIC50: −log10 of the molar value. Counter-ions that a name gives are not always drawn.

T1 sequence (P19156 2-1034 limits assumed): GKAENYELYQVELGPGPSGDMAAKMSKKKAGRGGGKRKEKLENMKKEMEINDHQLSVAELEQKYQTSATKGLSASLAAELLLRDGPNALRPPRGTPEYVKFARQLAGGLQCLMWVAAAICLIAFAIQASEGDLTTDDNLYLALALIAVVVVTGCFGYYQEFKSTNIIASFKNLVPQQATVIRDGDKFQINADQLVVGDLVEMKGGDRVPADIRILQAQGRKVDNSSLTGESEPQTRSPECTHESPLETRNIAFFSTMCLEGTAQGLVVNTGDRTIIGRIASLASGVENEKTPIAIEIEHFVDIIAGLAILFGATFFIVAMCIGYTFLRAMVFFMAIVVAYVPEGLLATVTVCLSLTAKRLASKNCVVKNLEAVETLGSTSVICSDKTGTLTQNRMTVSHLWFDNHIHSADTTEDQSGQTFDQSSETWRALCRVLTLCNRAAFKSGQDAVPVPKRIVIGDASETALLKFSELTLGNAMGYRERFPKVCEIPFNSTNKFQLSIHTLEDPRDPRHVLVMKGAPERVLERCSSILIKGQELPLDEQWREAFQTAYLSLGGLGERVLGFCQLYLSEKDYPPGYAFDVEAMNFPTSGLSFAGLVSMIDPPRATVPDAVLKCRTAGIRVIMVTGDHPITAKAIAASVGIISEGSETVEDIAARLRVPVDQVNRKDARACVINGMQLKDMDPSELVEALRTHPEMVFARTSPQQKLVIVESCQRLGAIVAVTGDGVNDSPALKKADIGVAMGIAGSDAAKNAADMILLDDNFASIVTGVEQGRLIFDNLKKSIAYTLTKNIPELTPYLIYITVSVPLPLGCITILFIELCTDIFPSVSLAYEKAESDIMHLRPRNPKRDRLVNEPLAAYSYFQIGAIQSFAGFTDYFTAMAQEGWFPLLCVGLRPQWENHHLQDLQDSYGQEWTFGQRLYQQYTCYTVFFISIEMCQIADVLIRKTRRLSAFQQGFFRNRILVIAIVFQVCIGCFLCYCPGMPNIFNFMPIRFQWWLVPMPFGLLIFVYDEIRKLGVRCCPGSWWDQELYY
T1 sequence (P18434 whole entry partner): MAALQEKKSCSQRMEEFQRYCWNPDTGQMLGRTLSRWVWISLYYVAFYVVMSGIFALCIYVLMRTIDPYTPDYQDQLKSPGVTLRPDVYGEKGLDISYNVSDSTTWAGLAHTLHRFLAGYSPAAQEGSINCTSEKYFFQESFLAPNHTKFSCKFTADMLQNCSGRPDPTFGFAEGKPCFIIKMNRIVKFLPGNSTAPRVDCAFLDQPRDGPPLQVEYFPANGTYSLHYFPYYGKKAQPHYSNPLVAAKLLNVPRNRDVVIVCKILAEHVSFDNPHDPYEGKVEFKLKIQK

The test addresses T1, H+/K+-ATPase (Sus scrofa, UniProt P19156).
T1 construct: reaction buffer solution (60 mmol/l Tris-HCl buffer solution, pH 7.4) containing hog gastric vesicle; from tissue; host or cells: hog stomach (gastric vesicles, by centrifugation after Rabon et al. 1988)
The test can be described thus: Inhibition of proton pump (H+/K+-ATPase) activity in hog gastric vesicles. Particulars: K+ specific H+/K+-ATPase activity, pH 7.4, 37° C. for 40 minutes, malachite green. The format is biochemical. In short, it runs like this: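 Hog gastric vesicles in 60 mmol/l Tris-HCl pH 7.4 with compound, started with ATP, 40 min at 37° C. Pi read by malachite green at 570 nm; K+-specific activity taken as difference between +K+ and −K+ activity. IC50 from % inhibition by 4-parameter logistic fit.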
Broadly, the pIC50 is −log10 of the IC50, conventionally taken in molar units. In turn, `CNC1CCc2c1cn(Cc1ccccc1)c2-c1ccccc1F` (stereo not shown) [Example 109, 2-benzyl-1-(2-fluorophenyl)-N-methyl-2,4,5,6-tetrahydrocyclopenta[c]pyrrol-4-amine] showed a pIC50 of 5.20.

Turning to `CNC1CCc2c1cn(Cc1cccc(C)c1)c2-c1ccccc1F` (stereo not shown) [Example 110, 1-(2-fluorophenyl)-N-methyl-2-(3-methylbenzyl)-2,4,5,6-tetrahydrocyclopenta[c]pyrrol-4-amine], the pIC50 is 5.54.

As to `CNC1CCc2c1cn(Cc1cccc(OC)c1)c2-c1ccccc1F` (stereo not shown) [Example 111, 1-(2-fluorophenyl)-2-(3-methoxybenzyl)-N-methyl-2,4,5,6-tetrahydrocyclopenta[c]pyrrol-4-amine], the pIC50 is 5.59.

Regarding `CNC1CCc2c1cn(C(=O)c1cccc(Cl)c1)c2-c1ccc(F)cc1F` (stereo not shown) [Example 114, (3-chlorophenyl)(1-(2,4-difluorophenyl)-4-(methylamino)-5,6-dihydrocyclopenta[c]pyrrol-2(4H)-yl)methanone], the pIC50 is 4.52.

In turn, `CNC1NCc2c1cn(S(=O)(=O)c1cccc(Cl)c1)c2-c1ccccc1F` (stereo not shown) [Example 115, 5-((3-chlorophenyl)sulfonyl)-4-(2-fluorophenyl)-N-methyl-1,2,3,5-tetrahydropyrrolo[3,4-c]pyrrol-1-amine hydrochloride] showed a pIC50 of 4.40.

For the compound `Cc1oc(=O)oc1COC(=O)N(C)C1CCc2c1cn(S(=O)(=O)c1cccc(F)c1)c2-c1ccc(F)cc1F` (stereo not shown) [Example 116, (5-methyl-2-oxo-1,3-dioxol-4-yl)methyl (1-(2,4-difluorophenyl)-2-((3-fluorophenyl)sulfonyl)-2,4,5,6-tetrahydrocyclopenta[c]pyrrol-4-yl)(methyl)carbamate], the pIC50 is 4.58.

Compound `Cc1oc(=O)oc1CN(C)C1CCc2c1cn(S(=O)(=O)c1cccc(F)c1)c2-c1ccc(F)cc1F` (stereo not shown) [Example 117, 4-(((1-(2,4-difluorophenyl)-2-((3-fluorophenyl)sulfonyl)-2,4,5,6-tetrahydrocyclopenta[c]pyrrol-4-yl)(methyl)amino)methyl)-5-methyl-1,3-dioxol-2-one] had a pIC50 of 5.61.

Take `Cc1oc(=O)oc1COC(=O)N(C)C1CCc2c1cn(S(=O)(=O)c1cccc(Cl)c1)c2-c1ccccc1F` (stereo not shown) [Example 118, (5-methyl-2-oxo-1,3-dioxol-4-yl)methyl (2-((3-chlorophenyl)sulfonyl)-1-(2-fluorophenyl)-2,4,5,6-tetrahydrocyclopenta[c]pyrrol-4-yl)(methyl)carbamate]: the pIC50 was 4.40.

Compound `Cc1oc(=O)oc1CN(C)C1CCc2c1cn(S(=O)(=O)c1cccc(Cl)c1)c2-c1ccccc1F` (stereo not shown) [Example 119, 4-(((2-((3-chlorophenyl)sulfonyl)-1-(2-fluorophenyl)-2,4,5,6-tetrahydrocyclopenta[c]pyrrol-4-yl)(methyl)amino)methyl)-5-methyl-1,3-dioxol-2-one] had a negative logarithm of the IC50 (pIC50) of 5.67.

As for `CNC1CCCc2c1cn(S(=O)(=O)c1cccc(F)c1)c2-c1ccccc1F` (stereo not shown) [Example 120, 1-(2-fluorophenyl)-2-((3-fluorophenyl)sulfonyl)-N-methyl-4,5,6,7-tetrahydro-2H-isoindole-4-amine], the pIC50 is 5.82.

`CNC1CCCc2c1cn(S(=O)(=O)c1cccc(C)c1)c2-c1ccccc1F` (stereo not shown) [Example 121, 1-(2-fluorophenyl)-N-methyl-2-(m-tolylsulfonyl)-4,5,6,7-tetrahydro-2H-isoindole-4-amine] had a negative-log IC50 (pIC50) of 5.82.

As for `CNC1CCCc2c1cn(S(=O)(=O)c1cccc(OC)c1)c2-c1ccccc1F` (stereo not shown) [Example 122, 1-(2-fluorophenyl)-2-((3-methoxyphenyl)sulfonyl)-N-methyl-4,5,6,7-tetrahydro-2H-isoindole-4-amine], the negative-log IC50 (pIC50) was 5.82.

As to `CNC1CCCc2c1cn(S(=O)(=O)c1cccc(OC(F)F)c1)c2-c1ccccc1F` (stereo not shown) [Example 123, 2-((3-(difluoromethoxy)phenyl)sulfonyl)-1-(2-fluorophenyl)-N-methyl-4,5,6,7-tetrahydro-2H-isoindole-4-amine], the pIC50 is 5.70.

For `CNC1CCCc2c1cn(S(=O)(=O)c1cccc(C(F)(F)F)c1)c2-c1ccccc1F` (stereo not shown) [Example 124, 1-(2-fluorophenyl)-N-methyl-2-((3-(trifluoromethyl)phenyl)sulfonyl)-4,5,6,7-tetrahydro-2H-isoindole-4-amine], the negative-log IC50 (pIC50) is 5.38.

As for `CNC1CCCc2c1cn(S(=O)(=O)c1cccc(OC(F)(F)F)c1)c2-c1ccccc1F` (stereo not shown) [Example 125, 1-(2-fluorophenyl)-N-methyl-2-((3-(trifluoromethoxy)phenyl)sulfonyl)-4,5,6,7-tetrahydro-2H-isoindole-4-amine], the pIC50 is 5.35.

Compound `CNC1CCCc2c1cn(S(=O)(=O)c1cc(Cl)ccc1F)c2-c1ccccc1F` (stereo not shown) [Example 126, 2-((5-chloro-2-fluorophenyl)sulfonyl)-1-(2-fluorophenyl)-N-methyl-4,5,6,7-tetrahydro-2H-isoindole-4-amine] showed a pIC50 of 5.40.

Compound `CNC1CCCc2c1cn(S(=O)(=O)c1cccc(Cl)c1)c2-c1ccc(-c2ccccc2)cc1` (stereo not shown) [Example 127, 1-([1,1′-biphenyl]-4-yl)-2-((3-chlorophenyl)sulfonyl)-N-methyl-4,5,6,7-tetrahydro-2H-isoindole-4-amine] had a pIC50 of 5.34.

Turning to `CNC1CCCc2c1cn(S(=O)(=O)c1cccc(Cl)c1)c2-c1ccncc1` (stereo not shown) [Example 128, 2-((3-chlorophenyl)sulfonyl)-N-methyl-1-(pyridin-4-yl)-4,5,6,7-tetrahydro-2H-isoindole-4-amine], the pIC50 was 4.30.

As for `CNC1CCCc2c1cn(S(=O)(=O)c1cccc(Cl)c1)c2-c1cncnc1` (stereo not shown) [Example 129, 2-((3-chlorophenyl)sulfonyl)-N-methyl-1-(pyrimidin-5-yl)-4,5,6,7-tetrahydro-2H-isoindole-4-amine], the negative logarithm of the IC50 (pIC50) was 4.40.

`CNC1CCCc2c1cn(S(=O)(=O)c1cccc(N(C)C)c1)c2-c1ccccc1F` (stereo not shown) [Example 130, 2-((3-(dimethylamino)phenyl)sulfonyl)-1-(2-fluorophenyl)-N-methyl-4,5,6,7-tetrahydro-2H-isoindole-4-amine] showed a pIC50 of 5.82.

Turning to `CNC1CCCc2c1cn(S(=O)(=O)c1cccnc1)c2-c1ccccc1F` (stereo not shown) [Example 131, 1-(2-fluorophenyl)-N-methyl-2-(pyridin-3-ylsulfonyl)-4,5,6,7-tetrahydro-2H-isoindole-4-amine], the pIC50 was 5.82.

In turn, `CNC1CCCc2c1cn(S(=O)(=O)c1cccnc1)c2-c1ccccc1C` (stereo not shown) [Example 132, N-methyl-2-(pyridin-3-ylsulfonyl)-1-(o-tolyl)-4,5,6,7-tetrahydro-2H-isoindole-4-amine] gave a pIC50 of 5.10.

`CNC1CCCc2c1cn(S(=O)(=O)c1cccnc1)c2-c1ccccc1Cl` (stereo not shown) [Example 133, 1-(2-chlorophenyl)-N-methyl-2-(pyridin-3-ylsulfonyl)-4,5,6,7-tetrahydro-2H-isoindole-4-amine] gave a pIC50 of 5.70.

With `CNC1CCCc2c1cn(S(=O)(=O)c1cccnc1)c2-c1ccc(-c2ccccc2)cc1` (stereo not shown) [Example 134, 1-([1,1′-biphenyl]-4-yl)-N-methyl-2-(pyridin-3-ylsulfonyl)-4,5,6,7-tetrahydro-2H-isoindole-4-amine], the pIC50 was 4.70.

With `CNC1CCCc2c1cn(S(=O)(=O)c1cccnc1)c2-c1ccc(F)cc1F` (stereo not shown) [Example 135, 1-(2,4-difluorophenyl)-N-methyl-2-(pyridin-3-ylsulfonyl)-4,5,6,7-tetrahydro-2H-isoindole-4-amine], the pIC50 was 5.30.
